# Data taken from the supplement of paper PMC3974653.
# Counter-ions that a name gives are not always drawn.
# Test system: MTT (mouse pheochromocytoma)
# Test: IC50 of cell viability (ATP content)
# Conditions: (24 or 48 h)
# Procedure, shortened: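 Cells of the MTT mouse pheochromocytoma line, 5 µl per well at 200,000 cells/ml, were grown overnight at 37°C, 5% CO2 in white 1536-well plates with DMEM, 5% FBS and 1% horse serum. Pintool transfer then delivered 23 nl of library compound in DMSO, giving 8 final concentrations from 0.5 nM to 46 µM, for an exposure of 24 or 48 hrs. Luminescence from CellTiter-Glo was read after 15 minutes and referenced to positive-control wells (100%) and DMSO wells (0%). IC50 was calculated with a four-parameter logistic fit.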
row,Structure (SMILES),IC50 of cell viability
1,CCCCCCC(O)C/C=C\CCCCCCCC(=O)O (configuration not stated) [Ricinoleic acid],> 46 µM
2,C[C@@H]1O[C@@H](O[C@H]2C[C@@H](O)[C@@]3(CO)[C@H]4[C@H](O)C[C@]5(C)[C@H](CC[C@]5(O)[C@H]4CC[C@@]3(O)C2)\C6=C\C(=O)OC6)[C@@H](O)[C@H](O)[C@H]1O [ouabain],> 46 µM
3,C=CCSCC1Nc2cc(Cl)c([S+](N)(=O)[O-])cc2[S+](=O)([O-])N1 (configuration not stated) [ALTHIAZIDE],> 46 µM
4,O=C(Cn1ccnc1[N+](=O)[O-])NCc1ccccc1 [Benznidazol],> 46 µM
5,C[S+](=O)([O-])O.O.O=C(O[C@@H]1C[C@@H]2C[C@@H]3C[C@H](C1)N2CC3=O)c1c[nH]c2ccccc12 [DOLASETRON MESYLATE],> 46 µM
6,Cc1cc(C(C)(C)C)c(O)c(C(C)(C)C)c1 [Butylated hydroxytoluene],> 46 µM
7,O=c1oc2c(O)c(O)cc3c(=O)oc4c(O)c(O)cc1c4c23 [ELLAGIC ACID],> 46 µM
8,COc1cc(O)cc(O)c1 [Flamenol],> 46 µM
9,COc1ccc(-c2cc(C(F)F)nn2-c2ccc([S+](N)(=O)[O-])cc2)cc1F [DERACOXIB],> 46 µM
10,CC(C(O)c1ccc(O)cc1)N1CCC(Cc2ccccc2)CC1 (configuration not stated) [IFENPRODIL],> 46 µM
11,C=CCN1CCC23c4c5ccc(O)c4O[C@H]2C(=O)CC[C@@]3(O)C1C5 (some centres not stated) [NALOXONE],> 46 µM
12,CCCCCCCCCCCC(=O)OCC(O)CO (configuration not stated) [GLYCEROL MONOLAURATE],> 46 µM
13,CC(C)(C)NCC(O)c1ccccc1Cl.Cl (configuration not stated) [TULOBUTEROL],> 46 µM
14,CO/N=C(/C(=O)N[C@@H]1C(=O)N2C(C(=O)O)=C(CSc3nnnn3C)CS[C@H]12)c1csc(N)n1 [CEFMENOXIME HYDROCHLORIDE],> 46 µM
15,CC(=O)O[C@@]1(CC[C@@H]2[C@@H]3\C=C(C)/C4=C/C(=O)CC[C@@]4(C)[C@H]3CC[C@@]12C)C(C)=O [Megestrol acetate],> 46 µM
16,OC(c1ccccc1)(c1ccccc1)C1CCNCC1 [Azacyclonol],> 46 µM
17,"COc1cc(OC)c(OC)cc1C=O [2,4,5-Trimethoxybenzaldehyde]",> 46 µM
18,CC(C)(S)[C@@H](N)C(=O)O [PENICILLAMINE],> 46 µM
19,CCC(=O)[O-] [Propionic acid],> 46 µM
20,CCCCNc1cc(C(=O)O)cc([S+](N)(=O)[O-])c1Oc1ccccc1 [Bumetanide],> 46 µM
21,"CCCCCCCCCCCCCCCC(=O)OC(C)C [Hexadecanoic acid, 1-methylethyl ester]",> 46 µM
22,CCCC(=O)N1CCCN(c2nc(N)c3cc(OC)c(OC)cc3n2)CC1 [BUNAZOSIN HYDROCHLORIDE],> 46 µM
23,CN(C)/N=N/c1nc[nH]c1C(N)=O [Dacarbazine],> 46 µM
24,[O]=[Cd] [Cadmium oxide],> 46 µM

row,Structure (SMILES),IC50 of cell viability
1,CC1CC(OC(=O)c2ccccc2O)CC(C)(C)C1 (configuration not stated) [Homosalate],> 46 µM
2,O=C1NCN(c2ccccc2)C12CCN(CC1COc3ccccc3O1)CC2 (configuration not stated) [SPIROXATRINE],> 46 µM
3,"CC12NC(Cc3ccccc31)c1ccccc12.O=C(O)/C=C/C(=O)O (single isomer, unassigned; (-)) [(-)-MK-801 hydrogen maleate]",> 46 µM
4,CN(C)CCc1c[nH]c2cccc(O)c12 [Psilocin],> 46 µM
5,CC1(C)CC/C(=C\c2ccc(Cl)cc2)C1(O)Cn1cncn1 (configuration not stated) [Triticonazole],> 46 µM
6,CC1CCC(O)C/C1=C\C=C1/CCCC2(C)C1CCC2C(C)/C=C/C(C)C(C)C (configuration not stated) [DIHYDROTACHYSTEROL],> 46 µM
7,C[C@H]1[C@H](NC(=O)/C(=N/OC(C)(C)C(=O)O)c2csc(N)n2)C(=O)N1[S+](=O)([O-])O [Aztreonam],> 46 µM
8,C/C(=N\O)c1ccc(OCC(=O)N2CCCCC2)cc1 [Pifoxime],> 46 µM
9,COc1cc(N)c(Cl)cc1C(=O)N[C@@H]1CCN(CCCOc2ccc(F)cc2)C[C@H]1OC [Cisapride],> 46 µM
10,CN1\C(=C(\O)C2=CC=CC=C2[S+]1([O-])=O)C(=O)NC3=NC=C(C)S3 [MELOXICAM],> 46 µM
11,CCn1ccnc1CC1COc2ccccc2O1 (configuration not stated) [IMILOXAN],> 46 µM
12,C[C@H](CN1c2ccccc2Sc2cccnc21)N(C)C [ISOTHIPENDYL HYDROCHLORIDE],> 46 µM
13,COc1cc(C(=S)N2CCOCC2)ccc1O [Vanitiolida],> 46 µM
14,CCN(C(C)=O)c1cccc(-c2ccnc3c(C#N)cnn23)c1 [Zaleplon],> 46 µM
15,N=C(N)NC(=O)Cc1c(Cl)cccc1Cl [GUANFACINE],> 46 µM
16,NCCCCCC(=O)O [Aminocaproic acid],> 46 µM
17,NCC1CCC(N)C(O[C@@H]2C(O)[C@H](O[C@H]3OC(CO)C(O)C(N)C3O)[C@@H](N)C[C@H]2N)O1.O=[S+]([O-])(O)O (some centres not stated) [DIBEKACIN],> 46 µM
18,C[N+]1(C)CCC(OC(=O)C(O)(c2ccccc2)C2CCCC2)C1 (configuration not stated) [Glycopyrrolate bromide],> 46 µM
19,CCC(N)Cc1c[nH]c2ccccc12 (configuration not stated) [ETRYPTAMINUM],> 46 µM
20,Nc1ccc([S+](=O)([O-])Nc2ccccn2)cc1 [Sulfapyridine],> 46 µM
21,CC(C)C(NC(=O)C(CC(=O)O)NC(=O)C(CCCCN)NC(=O)C(N)CCCNC(=N)N)C(=O)NC(Cc1ccc(O)cc1)C(=O)O (configuration not stated) [THYMOPENTINUM],> 46 µM
22,CCOC(=O)c1cncn1[C@@H](C)c1ccccc1 [Etomidate],> 46 µM
23,O=C(O)c1cc(-c2ccccc2)nc2ccccc12 [2-Phenyl-4-quinolinecarboxylic acid],> 46 µM
24,CC(C)(C)CC(=O)OCC(=O)[C@@]12OC(C)(C)O[C@@H]1C[C@H]1[C@@H]3CCC4=CC(=O)C=C[C@]4(C)[C@@]3(F)[C@@H](O)C[C@]12C [Triamcinolone hexacetonide],> 46 µM

# More lines, now with the values ahead:
row,IC50 of cell viability,Structure (SMILES)
1,> 46 µM,Cc1ccc2c(Br)cc(Br)c(O)c2n1 [Broquinaldol]
2,> 46 µM,C[N+]1(C)CCN(C[C@@](O)(c2ccccc2)C2CCCCC2)CC1 [Hexocyclium methosulfate]
3,> 46 µM,Cc1cccc(CN2CCN([C@@H](c3ccccc3)c3ccc(Cl)cc3)CC2)c1 [Meclozine dihydrochloride]
4,> 46 µM,CC(S)C(=O)NCC(=O)O (configuration not stated) [TIOPRONIN]
5,> 46 µM,CCC(C(=O)NC(=O)NC(C)=O)c1ccccc1 (configuration not stated) [ACETYLPHENETURIDE (CRAMPOL)]
6,> 46 µM,CCOc1ccccc1C(N)=O [2-Ethoxybenzamide (Ethenzamide)]
7,> 46 µM,C[N+]1(C)CCC(=C(c2ccccc2)c2ccccc2)CC1 [Diphemanil methylsulfate]
8,> 46 µM,ClC1=CC=C2C(CCC3=C(N=CC=C3)\C2=C4\CCNCC4)=C1 [Desloratadine]
9,> 46 µM,CN1\C(=C(\O)C2=C(C=CC=C2)[S+]1([O-])=O)C(=O)NC3=CC=CC=N3 [Piroxicam]
10,> 46 µM,CCC(O)c1ccccc1 (configuration not stated) [PHENYLPROPANOL]
11,> 46 µM,CCCCOC(=O)C(=O)Nc1cccc(-c2nnn[nH]2)c1 [Tazanolast]
12,> 46 µM,CC(=O)[C@]1(O)Cc2c(O)c3c(c(O)c2[C@@H](O[C@H]2C[C@H](N)[C@H](O)[C@H](C)O2)C1)C(=O)c1ccccc1C3=O [IDARUBICIN HYDROCHLORIDE]
13,> 46 µM,CCC[C@]1(CCc2ccccc2)CC(O)=C([C@H](CC)c2cccc(N[S+](=O)([O-])c3ccc(C(F)(F)F)cn3)c2)C(=O)O1 [TIPRANAVIR]
14,> 46 µM,O=C(O)c1ccccc1O [Salicylic acid]
15,> 46 µM,Cc1c(N)nc([C@@H](CC(N)=O)NC[C@H](N)C(N)=O)nc1C(=O)N[C@H](C(=O)N[C@@H](C)[C@@H](O)[C@@H](C)C(=O)N[C@H](C(=O)NCCc1nc(-c2nc(C(=O)NCCCN[C@H](C)c3ccccc3)cs2)cs1)[C@H](C)O)[C@@H](O[C@H]1O[C@@H](CO)[C@H](O)[C@@H](O)[C@H]1O[C@H]1O[C@@H](CO)[C@@H](O)[C@H](OC(N)=O)[C@H]1O)c1cnc[nH]1 [PEPLOMYCIN SULFATE]
16,> 46 µM,CCc1cccc(N(C)C(=N)Nc2cccc3ccccc23)c1.Cl [CNS-1102]
17,> 46 µM,N=C(N)NCCN1CCCCCCC1 [Guanethidine sulfate]
18,> 46 µM,CCN(Cc1ccncc1)C(=O)C(CO)c1ccccc1 (configuration not stated) [TROPICAMIDE]
19,> 46 µM,[Na+].CC1(C)S[C@H]2[C@H](NC(=O)[C@@H](NC(=O)N3CCNC3=O)C4=CC=CC=C4)C(=O)[N@]2[C@H]1C([O-])=O [Azlocillin sodium salt]
20,> 46 µM,C[C@H](O)Cn1cnc2c1c(=O)n(C)c(=O)n2C [Proxyphylline]
21,> 46 µM,CNCCC(Oc1ccccc1C)c1ccccc1 (configuration not stated) [Tomoxetine]
22,> 46 µM,CC(C)CCC[C@@H](C)[C@H]1CC[C@H]2[C@@H]3CC=C4C[C@@H](O)CC[C@]4(C)[C@H]3CC[C@]12C [CHOLESTEROL]
23,> 46 µM,CC(=O)NC1[C@H](O)C[C@@](O)(C(=O)O)O[C@H]1[C@H](O)[C@H](O)CO (some centres not stated) [ACIDUM ACENEURAMICUM]
24,> 46 µM,CCN1\C=C(\C(O)=O)C(=O)C2=C1N=C(N=C2)N3CCNCC3 [Pipemidic acid]
